{"source": "the supplement of paper PMC11061612", "assay_in_all_cases": "Bliss excess, mean over the matrix (fraction); higher = more synergy", "key": {"GOTO (Neuroblastoma)": {"system": "GOTO (Neuroblastoma)", "how_it_was_run": "(§1)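 Cell lines grown in DMEM/F12 or RPMI with 10% FBS were plated in 1536-well plates and held 24 hours at 37°C, 5% CO2 before 72 hours of exposure to two-drug dose matrices, with DMSO typically at 0.2%. CellTiter-Glo 2.0 luminescence gave viability, which was converted to inhibition. Vehicle wells were set to 0 and blank wells to 1. Combination Emax is the second-highest inhibition in the matrix, and Bliss excess is the observed combination effect minus the expected EA + EB − EA·EB, where EA and EB are the single-agent effects.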"}, "[1]": {"system": "MFE-319 (Endometrial Carcinoma)", "how_it_was_run": "as §1"}, "EW-18 (Ewing's Sarcoma)": {"system": "EW-18 (Ewing's Sarcoma)", "how_it_was_run": "as §1"}, "[2]": {"system": "OCUB-M (Breast Carcinoma)", "how_it_was_run": "as §1"}, "BT-20 (Breast Carcinoma)": {"system": "BT-20 (Breast Carcinoma)", "how_it_was_run": "as §1"}, "GI-1 (Glioblastoma)": {"system": "GI-1 (Glioblastoma)", "how_it_was_run": "as §1"}, "[3]": {"system": "H-EMC-SS (Chondrosarcoma)", "how_it_was_run": "as §1"}, "[4]": {"system": "ASH-3 (Thyroid Gland Carcinoma)", "how_it_was_run": "as §1"}, "[5]": {"system": "OVISE (Ovarian Carcinoma)", "how_it_was_run": "as §1"}, "RPMI-7951 (Melanoma)": {"system": "RPMI-7951 (Melanoma)", "how_it_was_run": "as §1"}, "EW-3 (Ewing's Sarcoma)": {"system": "EW-3 (Ewing's Sarcoma)", "how_it_was_run": "as §1"}, "[6]": {"system": "SNU-C1 (Colorectal Carcinoma)", "how_it_was_run": "as §1"}, "[7]": {"system": "HuP-T3 (Pancreatic Carcinoma)", "how_it_was_run": "as §1"}, "[8]": {"system": "OCUM-1 (Gastric Carcinoma)", "how_it_was_run": "as §1"}, "[9]": {"system": "KP-2 (Pancreatic Carcinoma)", "how_it_was_run": "as §1"}, "EW-13 (Ewing's Sarcoma)": {"system": "EW-13 (Ewing's Sarcoma)", "how_it_was_run": "as §1"}, "[10]": {"system": "PF-382 (T-Lymphoblastic Leukemia)", "how_it_was_run": "as §1"}, "[11]": {"system": "VMRC-LCD (Lung Adenocarcinoma)", "how_it_was_run": "as §1"}, "[12]": {"system": "JHH-7 (Hepatocellular Carcinoma)", "how_it_was_run": "as §1"}, "[13]": {"system": "HSC-2 (Oral Cavity Carcinoma)", "how_it_was_run": "as §1"}}, "data": [{"molecule": "CCc1c2c(nc3ccc(O)cc13)-c1cc3c(c(=O)n1C2)COC(=O)[C@]3(O)CC", "note": "[SN-38] + O=C(c1cc(Cc2n[nH]c(=O)c3ccccc23)ccc1F)N1CCN(C(=O)C2CC2)CC1 [Olaparib] (first compound max 0.3 µM, 7x7, partner max 10 µM)", "values": [{"measurement": "Bliss excess", "setting": "GOTO (Neuroblastoma)", "result": -0.0014}, {"measurement": "Bliss excess", "setting": "[1]", "result": 0.0328}, {"measurement": "Bliss excess", "setting": "EW-18 (Ewing's Sarcoma)", "result": 0.034}, {"measurement": "Bliss excess", "setting": "[2]", "result": 0.15}, {"measurement": "Bliss excess", "setting": "BT-20 (Breast Carcinoma)", "result": 0.107}, {"measurement": "Bliss excess", "setting": "GI-1 (Glioblastoma)", "result": 0.0652}, {"measurement": "Bliss excess", "setting": "[3]", "result": 0.0825}, {"measurement": "Bliss excess", "setting": "[4]", "result": 0.074}, {"measurement": "Bliss excess", "setting": "[5]", "result": 0.0082}, {"measurement": "Bliss excess", "setting": "RPMI-7951 (Melanoma)", "result": 0.0656}, {"measurement": "Bliss excess", "setting": "EW-3 (Ewing's Sarcoma)", "result": -0.0057}, {"measurement": "Bliss excess", "setting": "[6]", "result": -0.0419}, {"measurement": "Bliss excess", "setting": "[7]", "result": -0.0406}, {"measurement": "Bliss excess", "setting": "[8]", "result": 0.014}, {"measurement": "Bliss excess", "setting": "[9]", "result": 0.0564}, {"measurement": "Bliss excess", "setting": "EW-13 (Ewing's Sarcoma)", "result": 0.0804}, {"measurement": "Bliss excess", "setting": "[10]", "result": 0.0471}, {"measurement": "Bliss excess", "setting": "[11]", "result": -0.0163}, {"measurement": "Bliss excess", "setting": "[12]", "result": 0.0299}, {"measurement": "Bliss excess", "setting": "[13]", "result": 0.102}]}]}
